US10294227B2, “Compounds” (UNIVERSITY COURT OF THE UNIVERSITY OF EDINBURGH, priority 2015, dated 2019)
Read-outs that look alike come from different tables or passages of the source.

Key:
BLK = BLK (Homo sapiens (Human), UniProt P51451); experiment: Kinase screening assay (IC50)
KIT = KIT (Homo sapiens (Human), UniProt P10721); experiment: Kinase screening assay (IC50)
CYP2C9 = CYP2C9 (Homo sapiens (Human), UniProt P11712); experiment: CYP P450 inhibition
[1] = human, serum
CYP3A4 = CYP3A4 (Homo sapiens (Human), UniProt P08684); experiment: CYP P450 inhibition
mTOR = mTOR (Homo sapiens (Human), UniProt P42345); experiment: Kinase screening assay (IC50); assay type: biochemical
LCK = LCK (Homo sapiens (Human), UniProt P06239); experiment: Kinase screening assay (IC50)
FYN = FYN (Homo sapiens (Human), UniProt P06241); experiment: Kinase screening assay (IC50)
FRK/PTK5 = FRK/PTK5 (Homo sapiens (Human), UniProt P42685); experiment: Kinase screening assay (IC50)
hERG channel = hERG channel (Homo sapiens (Human), UniProt Q12809); experiment: hERG Safety Assay, Ionworks high-throughput electrophysiology
CYP2D6 = CYP2D6 (Homo sapiens (Human), UniProt P10635); experiment: CYP P450 inhibition
PDGFRa = PDGFRa (Homo sapiens (Human), UniProt P16234); experiment: Kinase screening assay (IC50); assay type: biochemical
HCK = HCK (Homo sapiens (Human), UniProt P08631); experiment: Kinase screening assay (IC50)
[2] = rat, serum
[3] = Liver microsome stability; assay type: in vitro ADME; details: % of unmodified drug after 30 min incubation with liver microsomes
LYN = LYN (Homo sapiens (Human), UniProt P07948); experiment: Kinase screening assay (IC50)
CYP2C19 = CYP2C19 (Homo sapiens (Human), UniProt P33261); experiment: CYP P450 inhibition
FGR = FGR (Homo sapiens (Human), UniProt P09769); experiment: Kinase screening assay (IC50)
RET = RET (Homo sapiens (Human), UniProt P07949); experiment: Kinase screening assay (IC50)
CYP1A2 = CYP1A2 (Homo sapiens (Human), UniProt P05177); experiment: in vitro
YES = YES (Homo sapiens (Human), UniProt P07947); experiment: Kinase screening assay (IC50)
[4] = Stability in mouse plasma; assay type: in vitro ADME; details: % of unmodified drug after 120 min in plasma
[5] = Stability in human plasma; assay type: in vitro ADME; details: % of unmodified drug after 120 min in plasma
ABL = ABL (Homo sapiens (Human), UniProt P00519); experiment: Kinase screening assay (IC50); assay type: biochemical
SRC = SRC (Homo sapiens (Human), UniProt P12931); experiment: Kinase screening assay (IC50); assay type: biochemical; details: for IC50: 10 μM ATP, read-out: Target inhibition (IC50) SRC
[6] = system: SYF fibroblasts (deficient for Src, Yes, and Fyn); experiment: Cell viability assay (PrestoBlue); assay type: cell-based, murine; details: Mus musculus, Fibroblast, 120 h; cell viability at day 5; read-out: Antiproliferative activity (EC50) SYF (−/− Src)
MCF7 cells = experiment: Cell viability assay (PrestoBlue); assay type: cell-based; details: Homo sapiens, MCF7, 120 h; cell viability at day 5; read-out: Antiproliferative activity (EC50) MCF7
MDA-MB-231 cells = experiment: Cell viability assay (PrestoBlue); assay type: cell-based; details: Homo sapiens, MDA-MB-231, 120 h, read-out: Antiproliferative activity (EC50) MDA-MB-231; cell viability at day 5
Stability in rat plasma = details: % of unmodified drug after 120 min in plasma
[7] = PBS, aqueous buffer
[8] = read-out: Kinase Screening (IC50) BLK, Src Family
[9] = read-out: Target inhibition (IC50) BLK, 10 μM ATP
[10] = read-out: Kinase Screening (IC50) c-KIT
[11] = read-out: Target inhibition (IC50) KIT, 10 μM ATP
[12] = 10 μM ATP, read-out: Target inhibition (IC50) mTOR
[13] = read-out: Kinase Screening (IC50) mTOR
[14] = read-out: Kinase Screening (IC50) LCK, Src Family
[15] = read-out: Target inhibition (IC50) LCK, 10 μM ATP
[16] = read-out: Kinase Screening (IC50) FYN, Src Family
[17] = read-out: Target inhibition (IC50) FYN, 10 μM ATP
[18] = read-out: Kinase Screening (IC50) FRK, Src Family
[19] = read-out: Target inhibition (IC50) FRK/PTK5, 10 μM ATP
[20] = 10 μM ATP, read-out: Target inhibition (IC50) PDGFRa
[21] = read-out: Kinase Screening (IC50) PDGFRa
[22] = read-out: Kinase Screening (IC50) HCK, Src Family
[23] = read-out: Target inhibition (IC50) HCK, 10 μM ATP
[24] = read-out: Kinase Screening (IC50) LYN, Src Family
[25] = read-out: Target inhibition (IC50) LYN, 10 μM ATP
[26] = read-out: Kinase Screening (IC50) FGR, Src Family
[27] = read-out: Target inhibition (IC50) FGR, 10 μM ATP
[28] = read-out: Kinase Screening (IC50) RET
[29] = read-out: Target inhibition (IC50) RET, 10 μM ATP
[30] = read-out: Target inhibition (IC50) YES, 10 μM ATP
[31] = 10 μM ATP, read-out: Target inhibition (IC50) ABL

Sequence of LCK (P06239 whole entry): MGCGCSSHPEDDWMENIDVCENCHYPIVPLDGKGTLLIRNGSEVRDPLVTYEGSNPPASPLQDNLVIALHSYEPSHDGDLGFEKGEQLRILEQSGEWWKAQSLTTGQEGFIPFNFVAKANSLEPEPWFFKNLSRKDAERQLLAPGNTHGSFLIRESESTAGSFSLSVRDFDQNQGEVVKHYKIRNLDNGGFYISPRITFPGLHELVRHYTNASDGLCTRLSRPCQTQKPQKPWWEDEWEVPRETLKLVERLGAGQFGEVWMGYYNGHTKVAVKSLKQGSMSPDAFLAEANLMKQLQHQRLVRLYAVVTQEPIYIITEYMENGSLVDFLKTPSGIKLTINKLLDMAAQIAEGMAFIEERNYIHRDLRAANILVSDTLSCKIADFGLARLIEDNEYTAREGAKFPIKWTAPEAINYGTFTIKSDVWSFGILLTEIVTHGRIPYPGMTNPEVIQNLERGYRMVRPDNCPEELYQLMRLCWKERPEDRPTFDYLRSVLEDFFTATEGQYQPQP
Sequence of FYN (P06241 whole entry): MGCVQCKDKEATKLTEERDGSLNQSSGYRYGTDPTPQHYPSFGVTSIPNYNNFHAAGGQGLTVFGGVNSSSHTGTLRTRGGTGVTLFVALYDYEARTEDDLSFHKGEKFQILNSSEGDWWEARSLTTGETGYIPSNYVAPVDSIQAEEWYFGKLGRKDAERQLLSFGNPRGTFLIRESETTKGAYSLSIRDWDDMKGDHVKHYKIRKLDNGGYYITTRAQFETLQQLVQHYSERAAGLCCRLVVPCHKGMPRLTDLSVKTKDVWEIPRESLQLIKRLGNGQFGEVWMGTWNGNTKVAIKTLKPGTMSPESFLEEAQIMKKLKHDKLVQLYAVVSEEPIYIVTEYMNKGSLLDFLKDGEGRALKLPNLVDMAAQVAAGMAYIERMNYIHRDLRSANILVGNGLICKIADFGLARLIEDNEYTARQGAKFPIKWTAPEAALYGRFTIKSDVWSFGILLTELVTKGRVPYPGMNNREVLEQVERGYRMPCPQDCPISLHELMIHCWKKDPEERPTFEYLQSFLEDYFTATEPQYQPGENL
Sequence of FGR (P09769 whole entry): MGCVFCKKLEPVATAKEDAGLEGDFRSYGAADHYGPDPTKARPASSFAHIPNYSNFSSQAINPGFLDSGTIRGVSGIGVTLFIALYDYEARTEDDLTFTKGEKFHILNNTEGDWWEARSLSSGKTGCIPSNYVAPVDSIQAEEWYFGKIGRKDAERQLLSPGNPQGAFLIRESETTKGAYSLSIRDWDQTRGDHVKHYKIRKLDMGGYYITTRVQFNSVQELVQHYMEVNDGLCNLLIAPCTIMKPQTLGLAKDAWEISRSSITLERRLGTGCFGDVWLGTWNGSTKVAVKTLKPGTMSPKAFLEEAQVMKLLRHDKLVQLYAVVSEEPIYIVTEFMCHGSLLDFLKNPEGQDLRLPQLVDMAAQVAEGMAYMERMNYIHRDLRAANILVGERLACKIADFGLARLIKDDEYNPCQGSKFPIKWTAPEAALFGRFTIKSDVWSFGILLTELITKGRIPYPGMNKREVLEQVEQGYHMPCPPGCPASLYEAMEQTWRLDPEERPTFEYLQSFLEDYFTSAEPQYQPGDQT
Sequence of hERG channel (Q12809 whole entry): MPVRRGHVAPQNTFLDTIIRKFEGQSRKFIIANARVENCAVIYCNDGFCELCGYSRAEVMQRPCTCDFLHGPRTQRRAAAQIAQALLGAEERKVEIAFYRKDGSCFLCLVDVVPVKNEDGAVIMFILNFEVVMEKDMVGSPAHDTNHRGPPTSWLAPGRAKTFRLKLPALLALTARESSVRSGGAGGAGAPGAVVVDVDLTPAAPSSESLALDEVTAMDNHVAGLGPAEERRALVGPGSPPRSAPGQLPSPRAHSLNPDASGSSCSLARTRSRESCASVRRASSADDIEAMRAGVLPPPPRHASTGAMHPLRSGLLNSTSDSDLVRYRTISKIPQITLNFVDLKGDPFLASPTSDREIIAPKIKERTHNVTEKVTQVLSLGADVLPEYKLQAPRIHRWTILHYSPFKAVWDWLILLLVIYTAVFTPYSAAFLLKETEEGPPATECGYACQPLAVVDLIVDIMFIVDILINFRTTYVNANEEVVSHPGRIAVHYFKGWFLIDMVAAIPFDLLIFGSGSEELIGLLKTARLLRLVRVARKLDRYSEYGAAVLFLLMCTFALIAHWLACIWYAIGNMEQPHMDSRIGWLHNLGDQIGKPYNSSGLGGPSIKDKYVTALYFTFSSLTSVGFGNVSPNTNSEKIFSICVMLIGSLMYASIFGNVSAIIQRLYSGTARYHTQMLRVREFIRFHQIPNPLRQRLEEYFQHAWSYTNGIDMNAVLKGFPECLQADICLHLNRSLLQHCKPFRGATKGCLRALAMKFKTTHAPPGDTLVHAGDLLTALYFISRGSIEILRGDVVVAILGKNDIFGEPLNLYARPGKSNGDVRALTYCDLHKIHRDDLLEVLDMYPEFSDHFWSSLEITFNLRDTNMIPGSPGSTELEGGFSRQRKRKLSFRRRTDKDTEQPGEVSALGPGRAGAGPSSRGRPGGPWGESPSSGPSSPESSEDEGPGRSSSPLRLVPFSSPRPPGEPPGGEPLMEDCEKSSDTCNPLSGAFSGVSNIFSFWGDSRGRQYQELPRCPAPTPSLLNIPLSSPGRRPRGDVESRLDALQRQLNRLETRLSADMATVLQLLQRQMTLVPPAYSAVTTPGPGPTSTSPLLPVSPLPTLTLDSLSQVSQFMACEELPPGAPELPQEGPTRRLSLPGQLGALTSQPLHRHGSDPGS
Sequence of ABL (P00519 whole entry): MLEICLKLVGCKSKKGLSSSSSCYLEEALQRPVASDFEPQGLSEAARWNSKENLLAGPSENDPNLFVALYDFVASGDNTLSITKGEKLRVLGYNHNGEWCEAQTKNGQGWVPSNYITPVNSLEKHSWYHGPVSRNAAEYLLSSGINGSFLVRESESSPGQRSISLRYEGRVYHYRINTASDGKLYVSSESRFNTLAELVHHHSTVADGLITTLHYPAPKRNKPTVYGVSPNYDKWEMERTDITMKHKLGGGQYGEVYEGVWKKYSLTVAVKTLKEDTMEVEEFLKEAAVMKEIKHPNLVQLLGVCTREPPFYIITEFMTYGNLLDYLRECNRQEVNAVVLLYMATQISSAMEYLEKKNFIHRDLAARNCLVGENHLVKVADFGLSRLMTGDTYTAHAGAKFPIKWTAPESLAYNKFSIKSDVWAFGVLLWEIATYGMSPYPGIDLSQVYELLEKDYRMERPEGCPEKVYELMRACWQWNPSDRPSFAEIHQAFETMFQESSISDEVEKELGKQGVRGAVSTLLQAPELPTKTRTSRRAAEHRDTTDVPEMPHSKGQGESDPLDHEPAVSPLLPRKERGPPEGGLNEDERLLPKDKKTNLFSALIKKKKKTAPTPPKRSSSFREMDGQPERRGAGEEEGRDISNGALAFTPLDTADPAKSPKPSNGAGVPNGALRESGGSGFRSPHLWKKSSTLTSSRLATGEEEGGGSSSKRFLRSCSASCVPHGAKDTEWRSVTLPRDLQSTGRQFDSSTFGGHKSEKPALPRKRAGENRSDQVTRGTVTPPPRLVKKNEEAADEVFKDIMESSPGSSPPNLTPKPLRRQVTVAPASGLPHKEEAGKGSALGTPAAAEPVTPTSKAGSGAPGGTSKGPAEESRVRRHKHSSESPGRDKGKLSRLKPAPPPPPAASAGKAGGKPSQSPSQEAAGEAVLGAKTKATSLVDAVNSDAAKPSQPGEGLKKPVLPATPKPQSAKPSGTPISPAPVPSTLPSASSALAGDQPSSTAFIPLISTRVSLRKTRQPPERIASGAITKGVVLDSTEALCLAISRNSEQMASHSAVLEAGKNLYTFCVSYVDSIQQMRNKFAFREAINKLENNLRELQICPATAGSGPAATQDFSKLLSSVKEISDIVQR
Sequence of RET (P07949 29-1114): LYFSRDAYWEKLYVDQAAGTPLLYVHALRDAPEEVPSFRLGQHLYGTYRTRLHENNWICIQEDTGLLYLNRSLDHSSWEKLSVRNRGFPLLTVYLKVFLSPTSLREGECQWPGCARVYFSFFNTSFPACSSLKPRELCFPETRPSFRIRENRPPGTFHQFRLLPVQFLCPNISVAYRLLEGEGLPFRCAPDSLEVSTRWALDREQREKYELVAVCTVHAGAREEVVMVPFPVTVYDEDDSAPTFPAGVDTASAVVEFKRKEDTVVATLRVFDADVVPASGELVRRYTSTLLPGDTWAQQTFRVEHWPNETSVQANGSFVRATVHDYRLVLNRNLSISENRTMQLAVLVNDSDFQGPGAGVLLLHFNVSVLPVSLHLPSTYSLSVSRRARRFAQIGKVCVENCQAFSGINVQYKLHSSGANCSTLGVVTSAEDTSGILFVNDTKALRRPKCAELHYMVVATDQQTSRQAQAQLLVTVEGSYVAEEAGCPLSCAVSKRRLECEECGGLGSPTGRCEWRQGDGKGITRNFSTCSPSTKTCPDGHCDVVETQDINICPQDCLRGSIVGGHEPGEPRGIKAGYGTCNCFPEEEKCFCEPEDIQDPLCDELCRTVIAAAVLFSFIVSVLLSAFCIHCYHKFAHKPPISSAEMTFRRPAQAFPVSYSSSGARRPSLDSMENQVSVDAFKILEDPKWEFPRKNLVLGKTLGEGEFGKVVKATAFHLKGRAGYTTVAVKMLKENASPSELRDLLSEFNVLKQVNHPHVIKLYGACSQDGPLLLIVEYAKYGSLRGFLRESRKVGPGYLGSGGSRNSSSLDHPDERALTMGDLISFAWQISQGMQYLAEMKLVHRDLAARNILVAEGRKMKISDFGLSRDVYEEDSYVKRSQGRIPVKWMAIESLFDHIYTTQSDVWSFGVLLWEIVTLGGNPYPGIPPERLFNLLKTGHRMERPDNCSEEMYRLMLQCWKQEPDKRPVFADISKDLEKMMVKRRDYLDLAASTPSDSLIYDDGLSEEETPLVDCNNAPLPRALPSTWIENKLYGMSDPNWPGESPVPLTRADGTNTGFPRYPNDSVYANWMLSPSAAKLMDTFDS

Row | SMILES | IC50 (BLK; [9]) [nM] | IC50 (KIT; [10]) [nM] | IC50 (KIT; [11]) [nM] | fraction unbound [1] | IC50 (mTOR; [12]) [nM] | IC50 (mTOR; [13]) [nM] | IC50 (LCK; [14]) [nM] | IC50 (LCK; [15]) [nM] | IC50 (FYN; [16]) [nM] | IC50 (FYN; [17]) [nM] | IC50 (FRK/PTK5; [19]) [nM] | IC50 (hERG channel) [nM] | IC50 (PDGFRa; [20]) [nM] | IC50 (PDGFRa; [21]) [nM] | IC50 (HCK; [23]) [nM] | IC50 (LYN; [24]) [nM] | IC50 (LYN; [25]) [nM] | IC50 (FGR; [27]) [nM] | IC50 (RET; [29]) [nM] | IC50 (YES; [30]) [nM] | also measured
1 | COc1cc(-c2nn(CCN3CCC(N4CCCC4)CC3)c3ncnc(N)c23)ccc1NC(=O)OC(C)(C)C [Compound 518, tert-butyl N-[4-[4-amino-1-[2-(4-pyrrolidin-1-yl-1-piperidyl)ethyl]pyrazolo[3,4-d]pyrimidin-3-yl]-2-methoxy-phenyl]carbamate] | < 10 | > 1000 | > 1000 | 0.172 | > 1000 | > 1000 | < 10 | < 10 | < 10 | < 10 | < 10 | 20100 | > 1000 | > 1000 | < 10 | < 10 | < 10 | < 10 | > 1000 | < 10 | IC50 (BLK; [8]): < 10 nM; inhibition at 10 µM (CYP2C9): -92.3%; inhibition at 10 µM (CYP3A4): -29.8%; IC50 (FRK/PTK5; [18]): < 10 nM; inhibition at 10 µM (CYP2D6): 6.7%; IC50 (HCK; [22]): < 10 nM; fraction unbound [2]: 0.134; 30 min Liver Microsome stability [3]: 87.0%; inhibition at 10 µM (CYP2C19): -6.5%; IC50 (FGR; [26]): < 10 nM; IC50 (RET; [28]): > 1000 nM; inhibition at 10 µM (CYP1A2): 6.9%; IC50 (YES; read-out: Kinase Screening (IC50) YES, Src Family): < 10 nM
2 | CC1CC(OC(=O)C(O)c2ccccc2)CC(C)(C)N1C (centres unmarked) [Eucatropine, reference compound] | – | – | – | – | – | – | – | – | – | – | – | – | – | – | – | – | – | – | – | – | Stability in mouse plasma [4]: 20.3%; Stability in human plasma [5]: 10.5%
3 | COc1cc(-c2nn(CCN3CCC(N4CCCCC4)CC3)c3ncnc(N)c23)ccc1NC(=O)OC(C)(C)C [Compound 519, tert-butyl N-[4-[4-amino-1-[2-[4-(1-piperidyl)-1-piperidyl]ethyl]pyrazolo[3,4-d]pyrimidin-3-yl]-2-methoxy-phenyl]carbamate] | < 10 | > 1000 | > 1000 | 0.143 | > 1000 | > 1000 | < 10 | < 10 | < 10 | < 10 | < 10 | 12600 | > 1000 | > 1000 | < 10 | < 10 | < 10 | < 10 | > 1000 | – | IC50 (BLK; [8]): < 10 nM; inhibition at 10 µM (CYP2C9): -70.3%; inhibition at 10 µM (CYP3A4): -12.1%; IC50 (FRK/PTK5; [18]): < 10 nM; inhibition at 10 µM (CYP2D6): 3%; IC50 (HCK; [22]): < 10 nM; fraction unbound [2]: 0.106; inhibition at 10 µM (CYP2C19): -3.1%; IC50 (FGR; [26]): < 10 nM; IC50 (RET; [28]): > 1000 nM; inhibition at 10 µM (CYP1A2): -1.6%
4 | COc1cc(-c2nn(CCN3CCC(N(C)C)CC3)c3ncnc(N)c23)ccc1Cc1ncc(C)o1 [Compound 584, 1-[2-[4-(dimethylamino)-1-piperidyl]ethyl]-3-[3-methoxy-4-[(5-methyloxazol-2-yl)methyl]phenyl]pyrazolo[3,4-d]pyrimidin-4-amine] | – | – | > 1000 | – | > 1000 | – | – | < 10 | – | – | – | – | > 1000 | – | – | – | – | < 10 | > 1000 | < 10 | IC50 (FYN): 100 to 1000 nM; IC50 (ABL; [31]): > 1000 nM; IC50 (SRC): 10 to 100 nM
5 | COc1cc(-c2nn(CCN3CCC(CN(C)C)CC3)c3ncnc(N)c23)ccc1NC(=O)OC(C)(C)C [Compound 503, tert-butyl N-[4-[4-amino-1-[2-[4-(dimethylaminomethyl)-1-piperidyl]ethyl]pyrazolo[3,4-d]pyrimidin-3-yl]-2-methoxy-phenyl]carbamate] | < 10 | – | > 1000 | – | > 1000 | – | – | < 10 | – | < 10 | < 10 | – | > 1000 | – | < 10 | – | < 10 | < 10 | > 1000 | < 10 | IC50 (KIT): 7130 nM; IC50 (mTOR; recombinant kinase, read-out: IC50 mTOR): > 10000 nM; IC50 (FYN): 4.6 nM; IC50 (ABL; [31]): 100 to 1000 nM; IC50 (ABL; recombinant kinase, read-out: IC50 Abl): 189 nM; IC50 (PDGFRa; recombinant kinase, read-out: IC50 PDGFRα): > 10000 nM; IC50 (RET): > 10000 nM; IC50 (YES): < 0.5 nM; potency (IC50) against Yes, in words (YES): sub-nano molar; potency (IC50) against Src, in words (SRC): sub-nano molar; IC50 (SRC): < 10 nM
6 | CN(C)C1CCN(CCn2nc(-c3cccc(NC(=O)OC(C)(C)C)c3)c3c(N)ncnc32)CC1 [Compound 542, tert-butyl N-[3-[4-amino-1-[2-[4-(dimethylamino)-1-piperidyl]ethyl]pyrazolo[3,4-d]pyrimidin-3-yl]phenyl]carbamate] | – | – | – | – | – | – | – | – | – | – | – | – | – | – | – | – | – | – | – | – | EC50 [6]: > 10000 nM; EC50 (MCF7 cells): > 10000 nM; EC50 (MDA-MB-231 cells): > 10000 nM
7 | CN(C)C1CCN(CCn2nc(-c3ccc(NC(=O)OC(C)(C)C)cc3)c3c(N)ncnc32)CC1 [Compound 543] | – | – | > 1000 | – | > 1000 | – | – | – | – | – | – | – | > 1000 | – | – | – | – | < 10 | > 1000 | < 10 | IC50 (LCK): 10 to 100 nM; IC50 (FYN): 100 to 1000 nM; IC50 (ABL; [31]): > 1000 nM; IC50 (SRC): 10 to 100 nM
8 | COc1ccc([C@@H]2Sc3ccccc3N(CCN(C)C)C(=O)[C@@H]2OC(C)=O)cc1 [Diltiazem, reference compound] | – | – | – | – | – | – | – | – | – | – | – | – | – | – | – | – | – | – | – | – | Stability in rat plasma (Stability in rat plasma): 21.5%
9 | Cc1nc(Nc2ncc(C(=O)Nc3c(C)cccc3Cl)s2)cc(N2CCN(CCO)CC2)n1 [Dasatinib, reference compound] | – | – | – | 0.06 | – | – | – | – | – | – | – | – | – | – | – | – | – | – | – | – | solubility [7]: < 100 µg/mL
10 | CN(C)C1CCN(CCn2nc(-c3ccc(CC(=O)OC(C)(C)C)cc3)c3c(N)ncnc32)CC1 [Compound 553, tert-butyl 2-[4-[4-amino-1-[2-[4-(dimethylamino)-1-piperidyl]ethyl]pyrazolo[3,4-d]pyrimidin-3-yl]phenyl]acetate] | – | > 1000 | > 1000 | – | > 1000 | > 1000 | < 10 | < 10 | < 10 | < 10 | – | 12600 | > 1000 | > 1000 | – | < 10 | < 10 | < 10 | > 1000 | – | Stability in rat plasma (Stability in rat plasma): 68.2%; Stability in mouse plasma [4]: 70.4%; Stability in human plasma [5]: 98.3%; IC50 (FGR; [26]): < 10 nM; IC50 (RET; [28]): > 1000 nM
